In patent US10344025B2, “GLS1 inhibitors for treating disease” (Board of Regents, The University of Texas System, priority 2014, dated 2019):

What was measured:
A549 cells = assay: Proliferation Assay (A549 viability, Cell Titer Fluor, 72 hours); format: cell-based; settings: Homo sapiens, A549, 72 h
Outline: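 Cell Titer Fluor fluorescence after 72 h compound treatment (0.5% DMSO, 37 °C, 5% CO2) of A549 cells plated 24 h earlier at 1000/well. Four-parameter logistic fitting gave IC50.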

[1] = target: purified recombinant human GAC (GLS1) (Homo sapiens (Human), UniProt O94925); assay: GLS1 Enzymatic Activity Assay (dual-coupled enzymatic assay, resorufin/Amplex UltraRed readout); format: biochemical;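 also: glutamate from GAC coupled via glutamate oxidase and peroxidase to resorufin, read as fluorescence (ex 530, em 590 nm) kinetically or at 20 min, four-parameter logistic IC50 fit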
purified recombinant human GAC (GLS1), sequence (O94925 other isoform, or with tags, fused parts or gaps): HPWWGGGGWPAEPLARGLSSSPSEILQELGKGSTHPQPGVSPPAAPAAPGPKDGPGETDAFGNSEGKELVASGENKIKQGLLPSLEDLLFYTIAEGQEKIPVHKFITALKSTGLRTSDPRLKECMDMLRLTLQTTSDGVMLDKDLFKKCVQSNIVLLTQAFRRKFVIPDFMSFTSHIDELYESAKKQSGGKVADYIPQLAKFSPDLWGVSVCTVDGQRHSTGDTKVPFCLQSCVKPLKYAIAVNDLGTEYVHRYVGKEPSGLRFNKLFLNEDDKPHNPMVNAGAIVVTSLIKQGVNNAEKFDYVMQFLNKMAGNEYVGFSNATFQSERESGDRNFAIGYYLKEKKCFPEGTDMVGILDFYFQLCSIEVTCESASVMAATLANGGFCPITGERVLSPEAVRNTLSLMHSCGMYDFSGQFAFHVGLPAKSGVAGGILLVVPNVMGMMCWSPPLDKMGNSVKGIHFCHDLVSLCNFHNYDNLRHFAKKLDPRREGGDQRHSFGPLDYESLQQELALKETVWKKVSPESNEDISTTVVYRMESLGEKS

Structure (SMILES)	EC50 (A549 cells) [µM]	IC50 [1] [µM]
O=C(NCc1cccc(C2CC2)c1)c1cn(CCCCn2cc(C(=O)NCc3cncc(C(F)(F)F)c3)nn2)nn1 [Example 133, 1-[4-(4-{[(3-cyclopropylphenyl)methyl]carbamoyl}-1H-1,2,3-triazol-1-yl)butyl]-N-{[5-(trifluoromethyl)pyridin-3-yl]methyl}-1H-1,2,3-triazole-4-carboxamide]	< 0.1	< 0.1
O=C(NCc1cncc(C(F)(F)F)c1)c1cn(CCCCn2cc(C(=O)NCc3cc(C4CC4)ccn3)nn2)nn1 [Example 135, 1-[4-(4-{[(4-cyclopropylpyridin-2-yl)methyl]carbamoyl}-1H-1,2,3-triazol-1-yl)butyl]-N-{[5-(trifluoromethyl)pyridin-3-yl]methyl}-1H-1,2,3-triazole-4-carboxamide]	< 0.1	< 0.1
CC1(C)Oc2ccc(CNC(=O)c3cn(CCCCn4cc(C(=O)NCc5cncc(C(F)(F)F)c5)nn4)nn3)cc2O1 [Example 136, 1-[4-(4-{[(2,2-dimethyl-2H-1,3-benzodioxol-5-yl)methyl]carbamoyl}-1H-1,2,3-triazol-1-yl)butyl]-N-{[5-(trifluoromethyl)pyridin-3-yl]methyl}-1H-1,2,3-triazole-4-carboxamide]	< 0.1	< 0.1
CC1(C)Oc2ccc(CNC(=O)c3cn(CCCCn4cc(C(=O)NCc5cc(C(F)(F)F)ccn5)nn4)nn3)cc2O1 [Example 137, 1-[4-(4-{[(2,2-dimethyl-2H-1,3-benzodioxol-5-yl)methyl]carbamoyl}-1H-1,2,3-triazol-1-yl)butyl]-N-{[4-(trifluoromethyl)pyridin-2-yl]methyl}-1H-1,2,3-triazole-4-carboxamide]	< 0.1	< 0.1
O=C(NCc1cccc(OC(F)(F)F)c1)c1cn(CCCCn2cc(C(=O)NC[C@@H](O)c3ccccc3)nn2)nn1 [Example 138, N-[(2S)-2-hydroxy-2-phenylethyl]-1-{4-[4-({[3-(trifluoromethoxy)phenyl]methyl}carbamoyl)-1H-1,2,3-triazol-1-yl]butyl}-1H-1,2,3-triazole-4-carboxamide]	0.1 to 0.5	0.1 to 0.5
O=C(NCc1cccc(OC(F)(F)F)c1)c1cn(CCCCn2cc(C(=O)NC[C@H](O)c3ccccc3)nn2)nn1 [Example 139, N-[(2R)-2-hydroxy-2-phenylethyl]-1-{4-[4-({[3-(trifluoromethoxy)phenyl]methyl}carbamoyl)-1H-1,2,3-triazol-1-yl]butyl}-1H-1,2,3-triazole-4-carboxamide]	0.1 to 0.5	0.1 to 0.5
O=C(NCc1cncc(C(F)(F)F)c1)c1cn(CCCCn2cc(C(=O)NCc3cncc(C(F)(F)F)c3)nn2)nn1 [Example 140, N-{[5-(trifluoromethyl)pyridin-3-yl]methyl}-1-{4-[4-({[5-(trifluoromethyl)pyridin-3-yl]methyl}carbamoyl)-1H-1,2,3-triazol-1-yl]butyl}-1H-1,2,3-triazole-4-carboxamide]	< 0.1	< 0.1
O=C(NCc1cncc(C(F)(F)F)c1)c1cn(CCCCn2cc(C(=O)NCc3cc(C(F)(F)F)ccn3)nn2)nn1 [Example 141, 1-{4-[4-({[4-(trifluoromethyl)pyridin-2-yl]methyl}carbamoyl)-1H-1,2,3-triazol-1-yl]butyl}-N-{[5-(trifluoromethyl)pyridin-3-yl]methyl}-1H-1,2,3-triazole-4-carboxamide]	< 0.1	< 0.1
O=C(NCc1cncc(C(F)(F)F)c1)c1cn(CCCCn2cc(C(=O)NCc3ccc(C(F)(F)F)cn3)nn2)nn1 [Example 142, 1-{4-[4-({[5-(trifluoromethyl)pyridin-2-yl]methyl}carbamoyl)-1H-1,2,3-triazol-1-yl]butyl}-N-{[5-(trifluoromethyl)pyridin-3-yl]methyl}-1H-1,2,3-triazole-4-\ carboxamide]	< 0.1	< 0.1

Other lines, results leading:

EC50 (A549 cells) [µM]	IC50 [1] [µM]	Structure (SMILES)
< 0.1	< 0.1	O=C(NCc1ccc(C(F)(F)F)nc1)c1cn(CCCCn2cc(C(=O)NCc3cncc(C(F)(F)F)c3)nn2)nn1 [Example 143, N-{[5-(trifluoromethyl)pyridin-3-yl]methyl}-1-{4-[4-({[6-(trifluoromethyl)pyridin-3-yl]methyl}carbamoyl)-1H-1,2,3-triazol-1-yl]butyl}-1H-1,2,3-triazole-4-carboxamide]
< 0.1	< 0.1	O=C(NCc1cncc(C(F)(F)F)c1)c1cn(CCCCn2cc(C(=O)NCc3cccc(C(F)(F)F)n3)nn2)nn1 [Example 144, 1-{4-[4-({[6-(trifluoromethyl)pyridin-2-yl]methyl}carbamoyl)-1H-1,2,3-triazol-1-yl]butyl}-N-{[5-(trifluoromethyl)pyridin-3-yl]methyl}-1H-1,2,3-triazole-4-carboxamide]
< 0.1	< 0.1	O=C(NCc1cc(C(F)(F)F)ccn1)c1cn(CCC(F)Cn2cc(C(=O)NCc3cncc(C(F)(F)F)c3)nn2)nn1 (stereo not drawn) [Example 145, 1-{3-fluoro-4-[4-({[5-(trifluoromethyl)pyridin-3-yl]methyl}carbamoyl)-1H-1,2,3-triazol-1-yl]butyl}-N-1{[4-(trifluoromethyl)pyridin-2-yl]methyl}-1H-1,2,3-triazole-4-carboxamide]
< 0.1	< 0.1	O=C(NCc1cccc(OC(F)(F)F)c1)c1cn(CCCCn2cc(C(=O)NCc3cncc(N4CC(F)(F)C4)c3)nn2)nn1 [Example 146, N-{[5-(3,3-difluoroazetidin-1-yl)pyridin-3-yl]methyl}-1-{4-[4-({[3-(trifluoromethoxy)phenyl]methyl}carbamoyl)-1H-1,2,3-triazol-1-yl]butyl}-1H-1,2,3-triazole-4-carboxamide]
< 0.1	< 0.1	O=C(NCc1cccc(OC(F)(F)F)c1)c1cn(CCC(F)Cn2cc(C(=O)NCc3cc(C4CC4)ccn3)nn2)nn1 (stereo not drawn) [Example 147]
< 0.1	< 0.1	O=C(NCc1cc(C2CC2)ccn1)c1cn(CCC(F)Cn2cc(C(=O)NCc3cccc(OC(F)(F)F)c3)nn2)nn1 (stereo not drawn) [Example 148, 1-[4-(4-({[4-cyclopropylpyridin-2-yl)methyl]carbamoyl}-1H-1,2,3-triazol-1-yl)-2-fluorobutyl]-N-{[3-(trifluoromethoxy)phenyl]methyl}-1H-1,2,3-triazole-4-carboxamide]
0.5 to 5	0.1 to 0.5	CNC(=O)c1cn(CC(F)CCn2cc(C(=O)NCc3cc(C(F)(F)F)ccn3)nn2)nn1 (stereo not drawn) [Example 149, 1-{2-fluoro-4-[4-({[4-yl]methyl}carbamoyl)-1H-1,2,3-triazol-1-yl]butyl}-N-methyl-1H-1,2,3-triazole-4-carboxamide]
0.1 to 0.5	0.1 to 0.5	CNC(=O)c1cn(CC(F)CCn2cc(C(=O)NCc3cc(OC(F)(F)F)ccc3F)nn2)nn1 (stereo not drawn) [Example 150, 1-{2-fluoro-4-[4-({[2-fluoro-5-(trifluoromethoxy)phenyl]methyl}carbamoyl)-1H-1,2,3-triazol-1-yl]butyl}-N-methyl-1H-1,2,3-triazole-4-carboxamide]
0.5 to 5	0.1 to 0.5	CNC(=O)c1cn(CCC(F)Cn2cc(C(=O)NCc3cncc(C(F)(F)F)c3)nn2)nn1 (stereo not drawn) [Example 151, 1-{3-fluoro-4-[4-({[5-(trifluoromethyl)pyridin-3-1-yl]methyl}carbamoyl)-1H-1,2,3-triazol-1-yl]butyl}-N-methyl-1H-1,2,3-triazole-4-carboxamide]
